Test results reported in US20240327415A1, “Multicomponent Complexes, Including Salts, Crystalline Forms, and Hydrates and Solvates of ENT1 Inhibitors” (iTeos Belgium SA, priority 2023, published 2024).
Structures can show the parent of a compound that is named as a salt.

Assay: solid form screen of Compound 1 di(hydrogen sulfate), XRPD damp and dried (Example 1)
Assay type: physicochemical
Procedure: Example 1—Solid Form Screen of Compound 1 Di(Hydrogen Sulfate): Amorphous Compound 1 di(hydrogen sulfate) (made in accordance with Example 7) was prepared and then subject to various crystallization techniques—temperature cycling, evaporation, crash cooling, solvent drop grinding, anti-solvent addition—each of which is described in more detail below. In addition, a reactive crystallization experiment was also conducted on Compound 1, which is a free base.
Temperature Cycling: Approximately 20 mg of Amorphous Compound 1 di(hydrogen sulfate) was added to 24×1.5 mL screw cap vials. Into each vial, the appropriate solvent system was added in 50 μL aliquots in an attempt to form slurries at 40° C. When the addition was completed, the samples were temperature-cycled between 40° C. and 5° C., using 0.1° C./min ramp and 1 hr hold between steps. After about 24 hours of cycling, anti-solvent addition at 40° C. was carried out on samples that were clear solutions. Temperature cycling was continued for all samples for a total of 48 hours. After 48 hours of cycling, any solids present in the samples were isolated via centrifugation and analyzed damp by XRPD to assess the polymorphic form.
Evaporation: Solutions of Amorphous Compound 1 di(hydrogen sulfate) were prepared in different solvent systems. […] The solutions were then left open to allow the solvents to evaporate at ambient. Solids observed post-evaporation were analyzed by XRPD.
Crash Cooling: Solutions of Amorphous Compound 1 di(hydrogen sulfate) were prepared in different solvent systems. […] The solutions were placed in a refrigerator to crash-cool the samples to about 5° C. for 48 hours. Solids observed at this point were analyzed by XRPD. The rest of the samples where no solids were observed were placed in a freezer to allow the samples to crash-cool further to about −20° C. After about 48 hours in the freezer, samples with solids were analyzed by XRPD. For samples where solids were still not observed, anti-solvent addition was carried out at 5° C., and the samples returned to the freezer. After 4 days in the freezer post-ASA, any solids present were analyzed by XRPD.
Solvent Drop Grinding: 15-20 mg of Amorphous Compound 1 di(hydrogen sulfate) was added to 24×2 mL bead mill tubes. Into each tube, 5 μL of the appropriate solvent system was added at ambient. Two small stainless-steel beads were placed in each tube, and the samples were milled using the following program: (1) Speed=5000 rpm; (2) Cycle=10×90 s; (3) Pause=10 s; (4) Repeat=duplicate. For samples where dissolution was suspected during the milling, additional amorphous material was added, and the milling program repeated. When the milling program was completed, the residual solids were analyzed by XRPD.
Anti-solvent Addition: 20-25 mg of Amorphous Compound 1 di(hydrogen sulfate) was added to 24×1.5 mL screw cap vials. Into each vial, 100 μL of the appropriate solvent system was added at 25° C. to form solutions. Where complete dissolution was not observed, an additional 400 μL of solvent was added and the samples were stirred at 50° C. to allow further dissolution. The mother liquors of these samples were needle-filtered into a new set of vials. To all the solutions, anti-solvent addition was carried out at 25° C. Where sufficient precipitation was observed post-ASA, these were isolated and analyzed by XRPD. Where thin slurries or clear solutions were observed post-ASA, these were cooled to 5° C. at 0.1° C./min and stirred at 5° C. for ca 18 h. Any solids present were isolated and analyzed by XRPD.
Reactive Crystallization: 15-20 mg of Compound 1 was added to 18×1.5 mL screw cap vials. Into each vial, 100 μL of the appropriate solvent system was added at 40° C. 2.05 mole equiv. of H2SO4 was also added to the vials as solutions in 100 μL of the respective solvent systems. The samples were stirred at 40° C. for another approximately 30 mins, cooled to 5° C. at 0.1° C./min and left stirring at 5° C. for about 18 h. […]

COc1cc(C(=O)O[C@@H]2CCCOc3cc(cc(OC)c3OC)C(=O)NCCCN3CCCN(CC2)CC3)cc(OC)c1OC [Compound 1 di(hydrogen sulfate)]
2, PO: XRPD (Damp) Crash cooling (2-propanol:water (75:25% v/v)) | XRPD (Dried) Crash cooling (2-propanol:water (75:25% v/v))
Am: XRPD (Dried) Anti-solvent addition (1,4-Dioxane) | XRPD (Dried) Solvent drop grinding (1,4-Dioxane) | XRPD (Dried) Temp cycling (1-Propanol) | XRPD (Dried) Anti-solvent addition (2-Methyl THF) | XRPD (Dried) Solvent drop grinding (2-Methyl THF) | XRPD (Dried) Temp cycling (2-Methyl THF) | XRPD (Dried) Anti-solvent addition (2-Propanol) | XRPD (Dried) Reactive cryst. (2-Propanol) | XRPD (Dried) Temp cycling (2-Propanol) | XRPD (Dried) Anti-solvent addition (Acetone) | XRPD (Dried) Solvent drop grinding (Acetone) | XRPD (Dried) Solvent drop grinding (DCM) | XRPD (Dried) Anti-solvent addition (DMF) | XRPD (Dried) Solvent drop grinding (DMF) | XRPD (Dried) Anti-solvent addition (DMSO) | XRPD (Dried) Solvent drop grinding (DMSO) | XRPD (Dried) Reactive cryst. (Ethyl Acetate) | XRPD (Dried) Solvent drop grinding (Ethyl Acetate) | XRPD (Dried) Temp cycling (Ethyl Acetate) | XRPD (Dried) Solvent drop grinding (Isopropyl Acetate) | XRPD (Dried) Temp cycling (Isopropyl Acetate) | XRPD (Dried) Solvent drop grinding (MEK) | XRPD (Dried) Reactive cryst. (Methanol) | XRPD (Dried) Temp cycling (Methanol) | XRPD (Dried) Reactive cryst. (MiBK) | XRPD (Dried) Solvent drop grinding (MiBK) | XRPD (Dried) Temp cycling (MiBK) | XRPD (Dried) Solvent drop grinding (THF) | XRPD (Dried) Solvent drop grinding (Toluene) | XRPD (Dried) Temp cycling (Toluene)
6+, PC: XRPD (Dried) Evaporation (Acetonitrile)
6, PC: XRPD (Damp) Evaporation (Acetonitrile)
2, PC: XRPD (Damp) Evaporation (1,4-Dioxane) | XRPD (Damp) Temp cycling (1,4-Dioxane) | XRPD (Dried) Evaporation (1,4-Dioxane) | XRPD (Dried) Temp cycling (1,4-Dioxane) | XRPD (Damp) Anti-solvent addition (1-Propanol) | XRPD (Damp) Solvent drop grinding (1-Propanol) | XRPD (Dried) Anti-solvent addition (1-Propanol) | XRPD (Damp) Evaporation (2-Methyl THF) | XRPD (Dried) Evaporation (2-Methyl THF) | XRPD (Damp) Evaporation (2-Propanol) | XRPD (Damp) Evaporation (2-propanol:water (50:50% v/v)) | XRPD (Dried) Evaporation (2-propanol:water (50:50% v/v)) | XRPD (Damp) Reactive cryst. (2-propanol:water (75:25% v/v)) | XRPD (Damp) Evaporation (Acetone) | XRPD (Damp) Temp cycling (Acetone) | XRPD (Dried) Evaporation (Acetone) | XRPD (Dried) Temp cycling (Acetone) | XRPD (Dried) Evaporation (Ethanol:water (90:10% v/v)) | XRPD (Damp) Temp cycling (MEK) | XRPD (Dried) Temp cycling (MEK) | XRPD (Damp) Solvent drop grinding (Methanol) | XRPD (Dried) Solvent drop grinding (Methanol) | XRPD (Damp) Evaporation (THF) | XRPD (Dried) Evaporation (THF)
